Laboratory results from paper PMC4085075, “Characterization of Estrogen and Androgen Activity of Food Contact Materials by Different In Vitro Bioassays (YES, YAS, ERα and AR CALUX) and Chromatographic Analysis (GC-MS, HPLC-MS)” (PLoS ONE, 2014).
Like-named read-outs stand apart in the source and are kept apart here.

How the values were obtained:
[1] = molecular target: T1, human estrogen receptor (hERα) (Homo sapiens, UniProt P03372); experiment: Yeast estrogen screen (YES); type: cell-based
T1 construct: expressed in transfected cells; host or cells: recombinant yeast strain (provided by Wagner and Oehlmann, Frankfurt; by permission of Routledge and Sumpter)
T1 sequence (P03372 1-595): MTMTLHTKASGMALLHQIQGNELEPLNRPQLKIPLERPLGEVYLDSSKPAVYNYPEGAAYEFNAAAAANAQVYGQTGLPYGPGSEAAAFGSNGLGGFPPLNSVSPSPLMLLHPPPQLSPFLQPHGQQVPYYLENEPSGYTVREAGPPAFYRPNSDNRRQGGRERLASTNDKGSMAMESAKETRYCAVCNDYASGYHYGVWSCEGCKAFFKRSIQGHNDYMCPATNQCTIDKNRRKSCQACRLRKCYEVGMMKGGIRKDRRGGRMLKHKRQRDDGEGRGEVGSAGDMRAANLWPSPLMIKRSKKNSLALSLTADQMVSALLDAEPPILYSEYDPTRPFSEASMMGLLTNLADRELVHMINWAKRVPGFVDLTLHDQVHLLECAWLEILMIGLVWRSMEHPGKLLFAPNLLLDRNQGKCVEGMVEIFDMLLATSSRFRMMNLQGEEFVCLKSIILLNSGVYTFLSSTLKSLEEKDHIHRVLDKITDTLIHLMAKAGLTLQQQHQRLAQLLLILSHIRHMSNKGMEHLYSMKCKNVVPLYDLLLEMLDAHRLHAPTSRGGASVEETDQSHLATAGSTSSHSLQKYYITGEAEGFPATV
Experimental: (§1) Briefly, different resin types of food packaging were migrated with food simulants for 10 days at 60°C. […] From every sample two independent migrates were prepared, subsequently concentrated by solid phase extraction and tested in the bioassays. […] For each migration a solvent blank of each food simulant was migrated in a glass bottle with a polytetrafluorethylene-coated cap. Prior to solid phase extraction, 1 ml and 20 ml of each migrate were set aside for HPLC and GC analysis.
(§2) After 10 days of migration, solid phase extraction by Waters Oasis HLB columns (5 cc/200 mg) was used to extract hormone active components from the food simulants. As described in detail by Kirchnawy et al. sample migrates diluted to 10% ethanol and adjusted to pH 3 were drawn through the columns and eluted into […] DMSO. Elutes were evaporated under a nitrogen stream to a final volume of 150–200 µl and stored at 4°C prior to analysis by YES, YAS and CALUX bioassays. Extraction recoveries and reproducibility of the solid phase extraction were previously determined by Kirchnawy et al..
The yeast strain contains the stably integrated human estrogen receptor (hERα) gene and an expression plasmid containing the reporter gene lacZ under the control of estrogen responsive elements (ERE). The activation of the hERα by the binding of an estrogen active substance leads to the expression of β-galactosidase, which converts the substrate chlorophenol red-β-D-galactopyranoside (CPRG) into chlorophenol red.
The analysis of food contact materials was conducted as previously described by Kirchnawy et al.. Briefly, yeast cells were incubated with fresh media supplemented with 1% of the respective DMSO sample extracts on a 96-well microtiter plate for 24 h. […] The regression was calculated by MS Excel, using the formula for a linear regression curve (y = kx + d).

[2] = molecular target: T2, human estrogen receptor alpha (hERα) (Homo sapiens, UniProt P03372); experiment: ERα CALUX reporter gene assay in U2-OS cells; type: cell-based; details: for EC50: footnote a: inhibition of U2-OS cell growth at higher concentrations
T2 construct: host or cells: human U2-OS osteosarcoma cells
T2 sequence (P03372 1-595): T1 sequence (P03372 1-595)
Experimental: as §1, §2
The ERα CALUX is a human U2-OS cell line stably co-transfected with an expression construct for the human estrogen receptor alpha (hERα). Activation of the hERα by the binding of an estrogen active substance leads to the transcription of luciferase, which emits light when luciferin is added as a substrate.
Assay procedure was conducted as previously described by Sonneveld et al. with modifications. U2-OS cells were plated at a concentration of 10 000 cells/well with 100 µl phenol red-free Dulbecco's modified eagle medium (DMEM) (supplemented with dextran-coated charcoal-stripped FCS) in a 96-well microtiter plate. After 24 h incubation at 37°C in a humidified atmosphere with 5% CO2, DMEM medium was refreshed and cells were incubated for another 24 h with 0.5% of the respective DMSO sample extract. After examining cell growth under a microscope to ensure that sample extracts had no cytotoxic or growth inhibiting effects, 50 µl Steady Glo Luciferase-Mix (Promega) was added to each well and incubated for 15 min for cell lysis. This was followed by measuring the luciferase activity of each well using a multilabel reader (Victor^3, Perkin Elmer).

[3] = test system: kidney fibroblast cell 293T and human breast cancer cells ZR-75; parameters: method as in PMID 7556011; details: at a concentration of 100 µmol/l; cited from earlier work
[4] = molecular target: T3, human androgen receptor (hAR) (Homo sapiens, UniProt P10275); experiment: Yeast androgen screen (YAS); type: cell-based; details: footnote b: inhibition of yeast growth at higher concentrations
T3 sequence (P10275 1-920): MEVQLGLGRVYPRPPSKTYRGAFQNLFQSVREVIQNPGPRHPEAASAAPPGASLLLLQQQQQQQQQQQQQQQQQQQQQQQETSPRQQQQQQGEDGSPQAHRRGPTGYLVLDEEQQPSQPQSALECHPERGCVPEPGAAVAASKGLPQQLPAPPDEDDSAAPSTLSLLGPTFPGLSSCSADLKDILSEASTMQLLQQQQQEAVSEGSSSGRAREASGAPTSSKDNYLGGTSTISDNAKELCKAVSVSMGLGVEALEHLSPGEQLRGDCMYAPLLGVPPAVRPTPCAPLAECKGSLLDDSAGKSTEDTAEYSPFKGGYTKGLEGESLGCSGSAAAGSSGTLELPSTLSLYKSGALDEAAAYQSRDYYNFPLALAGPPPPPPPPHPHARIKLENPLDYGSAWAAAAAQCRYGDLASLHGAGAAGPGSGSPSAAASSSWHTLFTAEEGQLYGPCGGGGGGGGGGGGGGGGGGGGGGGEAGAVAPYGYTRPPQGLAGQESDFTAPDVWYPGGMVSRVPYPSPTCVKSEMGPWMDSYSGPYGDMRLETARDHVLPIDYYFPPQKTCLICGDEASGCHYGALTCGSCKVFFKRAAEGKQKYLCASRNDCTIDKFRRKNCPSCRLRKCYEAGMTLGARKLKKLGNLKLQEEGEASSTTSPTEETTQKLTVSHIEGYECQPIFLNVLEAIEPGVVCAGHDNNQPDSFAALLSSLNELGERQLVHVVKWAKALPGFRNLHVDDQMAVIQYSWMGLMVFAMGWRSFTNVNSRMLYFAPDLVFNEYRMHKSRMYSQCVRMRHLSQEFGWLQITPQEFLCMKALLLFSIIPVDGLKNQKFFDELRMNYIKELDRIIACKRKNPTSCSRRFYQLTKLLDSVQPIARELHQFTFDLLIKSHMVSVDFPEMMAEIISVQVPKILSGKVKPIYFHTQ
Experimental: as §1, §2

[5] = molecular target: T3, human androgen receptor (hAR); experiment: AR CALUX reporter gene assay in U2-OS cells; type: cell-based; parameters: host or cells: human U2-OS osteosarcoma cells; details: footnote a: inhibition of U2-OS cell growth at higher concentrations
Experimental: as §1, §2

[6] = test system: CHO-K1 cells; parameters: method as in PMID 18261797; details: cited from earlier work
[7] = test system: rainbow trout; parameters: method as in PMID 18261797; details: cited from earlier work
[8] = parameters: method as in PMID 21050888; details: cited from earlier work
[9] = test system: MCF7; parameters: method as in PMID 11485868; details: human cell-based MCF7 proliferation assay; cited from earlier work
[10] = agonist mode, footnote b: inhibition of yeast growth at higher concentrations, read-out: YES Estrogen activity EC50
[11] = antagonist mode, spiked with 80 pmol/l 17β-estradiol, footnote b: inhibition of yeast growth at higher concentrations, read-out: YES Antiestrogen activity EC50
[12] = agonist mode, read-out: ER CALUX Estrogen activity EC50
[13] = antagonist mode, spiked with 8 pmol/l 17β-estradiol, read-out: ER CALUX Antiestrogen activity EC50

In the case of `CC(C)(c1ccccc1)c1ccc(O)c(C(C)(C)c2ccccc2)c1` [2,4-di-cumylphenol], the EC50 [1] is reported as greater than 300 µM, the “estrogen activity in the YES (in words)” value ([1]; agonist mode) is reported as “showed estrogen activity” and the EC50 ([2]; ER CALUX Antiestrogen activity EC50, antagonist mode, spiked with 8 pmol/l 17β-estradiol) is reported as greater than 20 µM. For the same molecule, the EC50 ([2]; ER CALUX Estrogen activity EC50, agonist mode) was 5 µM and the “estrogen activity in the ERα CALUX (in words)” value ([2]; agonist mode) was “showed estrogen activity”.
For `Cc1cc(C(C)(C)C)c(O)c(C(C)(C)C)c1` [2,6-bis(1,1-dimethylethyl)-4-methylphenol], the “estrogen activity in 293T and ZR-75 cells” value [3] is listed as “tested positive for estrogen”.
With `c1ccc(CCCc2ccccc2)cc1` [1,3-diphenylpropane] the “estrogen activity in the YES (in words)” value ([1]; agonist mode) was “tested positive for estrogen activity”, the EC50 [1, 10] was 500 µM and the EC50 [1, 11] was greater than 1000 µM. The “estrogen activity in the ERα CALUX (in words)” value ([2]; agonist mode) was “tested positive for estrogen activity”, the EC50 [2, 12] was 40 µM and the EC50 [2, 13] was greater than 500 µM. For the same molecule, the EC50 ([4]; agonist mode, read-out: YAS Androgen activity EC50) was greater than 1000 µM, the EC50 ([4]; antagonist mode, spiked with 2.4 nmol/l DHT, read-out: YAS Antiandrogen activity EC50) was 30 µM and the EC50 ([5]; agonist mode, read-out: AR CALUX Androgen activity EC50) was greater than 500 µM. The EC50 ([5]; antagonist mode, spiked with 400 pmol/l DHT, read-out: AR CALUX Antiandrogen activity EC50) was 30 µM.
In the case of `CC(C)(C)c1ccc(O)c(C(C)(C)C)c1` [2,4-di-tert-butylphenol], the EC50 [1, 10] is given as greater than 10 µM, the EC50 [1, 11] is given as greater than 10 µM and the “androgen antagonist in CHO-K1 cells” value [6] is given as “androgen antagonist”. For the same molecule, the EC50 [2, 12] was greater than 20 µM, the EC50 [2, 13] was greater than 20 µM and the “androgen antagonist in rainbow trout” value [7] was “androgen antagonist”.
With `CCCCC(CC)COC(=O)CCCCC(=O)OCC(CC)CCCC` (stereo not drawn) [diethylhexyladipate (DEHA), diethylhexyladipate] the “estrogen activity in the YES (in words)” value ([1]; agonist mode) was “did not show any activity”, the EC50 [1, 10] was greater than 1000 µM and the EC50 [1, 11] was greater than 1000 µM. For the same molecule, the “estrogen activity in the ERα CALUX (in words)” value ([2]; agonist mode) was “did not show any activity”, the EC50 [2, 12] was greater than 500 µM and the EC50 [2, 13] was greater than 500 µM. The “estrogen activity using the E-Screen” value [8] was “tested positive for estrogen activity”.
In the case of `c1ccc(C2CCC2c2ccccc2)cc1` (stereo not drawn) [1,2-diphenylcyclobutane], the “times less active than 17β-estradiol” value [9] is given as 4*10^5.
